From patent publication US20200030455A1, “MULTISTEP TUMOR TARGETING BY TAGGED ANTIBODY DERIVATIVES AND TAGGED DRUGS” (ISTITUTO BIOCHIMICO ITALIANO GIOVANNI LORENZINI S.P.A, priority 2017, published 2020) come the findings set out here.

Assay [1] concerns SK-BR-3 breast carcinoma cells. As to the kind of experiment: 3H-Thymidine incorporation (cell proliferation) assay. The format is cell-based, human. Conditions: drug alone, without Toolbox cocktail; 5 and 50 μM; 72 h. Here is the method:
NAX 098 was modified by covalent addition of the polypeptide StrepTag ([…]), as also shown in (A). SK-BR-3 breast carcinoma cells were seeded in 96-well plates (quadruplicates), and cultured for 30 min in the presence of ScFv (10 μg/ml). Meanwhile, equal molar concentrations of NAX 098 and NAX […] (or RPMI 1640 medium, as a control) were pre-incubated with StrepTactMult in complete culture medium (RPMI 1640 containing 10% bovine serum) to form drug: StrepTactin complexes. The drug: StrepTactin complexes were added to separate cultures to yield a final StrpTactMult concentration of 0.75 μg/well (approximately 3.2 μg/ml), and two final drug concentrations of 5 and 50 μM, as indicated in (B). As a control, equal amounts of NAX 098 and NAX […] drugs were added to separate wells in the absence of the Toolbox cocktail. All the cells were cultured for 72 h, and ^3H-Thymidine incorporation was assessed over a 4 h radioactive pulse. Results were expressed as percent of radioactive Thymidine incorporation as compared to untreated (RPMI 1640 vehicle alone) control cells.
(In general: Uptake of a labelled nucleoside into DNA is a usual measure of proliferation.)

Assay [2] concerns ERBB2 pathway (c-Fos promoter reporter) in BRC 230 breast carcinoma cells. In words: c-Fos promoter reporter (luminescence, RLU) assay of ERBB2 signaling. The format is cell-based. The source says:
Mertansine was StrepTagged using a linker-spacer (depicted in A). The Strep-tag peptide WSHPQFEK (SEQ ID NO 2) was linked to the mertansine thiol group using the protocol disclosed in Bioconjugate Techniques, 3rd Edition Bioconjugate Techniques, 3rd Edition (2013) by Greg T. Hermanson. BRC 230 breast carcinoma cells, expressing moderate levels of ERBB2 were stably transfected with a promoter-reporter gene construct in which luciferase is placed under the control of the c-Fos promoter. […] Therefore, c-Fos activation is proportional to ERBB2 signaling, and luminescence is expected to decrease in response to the Toolbox treatment. BRC transfectants were seeded in 96-well plates (quadruplicates), and cultured for 24 h either in the presence or in the absence of the ERB-specific growth factor Neuregulin 1 (NRG-1) at a concentration of 5 nM, as indicated. During the last 30 min of this incubation ScFv (10 μg/ml) was added, where indicated. Meanwhile, equal molar concentrations of StrepTagged Mertansine (or RPMI 1640 medium, as a control) were pre-incubated with StrepTactMult in complete culture medium (RPMI 1640 containing 10% bovine serum) to form drug: StrepTactin complexes. […] All the cells were cultured for additional 72 h, and Relative Luminescence Units (RLU) were assessed in a luminometer.

In the case of `COc1ccc2c(CCc3ccc(Cl)cc3)c3[n+](cc2c1OCCCN1C(=O)C=CC1=O)CCc1cc2c(cc1-3)OCO2` [NAX 098, 9-(3-propylmaleimide)-13-[2-(4-chlorophenyl)ethyl]berberine], in assay [1], the “inhibition of cell proliferation (3H-Thymidine incorporation vs untreated control)” value was “strongly inhibited cell proliferation”.

Turning to “StrepTagged Mertansine: Strep-tag peptide WSHPQFEK linked to the mertansine thiol group using a linker-spacer”, the “activity of the ERBB2 pathway (Relative Luminescence Units)” value in assay [2] (BRC 230 transfectants, with or without NRG-1 5 nM, ScFv 10 μg/ml, drug 5 nM, 72 h) is recorded as “inhibited the ERBB2 pathway”. Moreover, in assay [2] (figure legend of Drawing 4), the “activity of the StrepTagged drug before system-mediated dispatch” value was “inactivates the drug”.
